Source: patent US20190382850A1, “METHOD FOR IDENTIFYING MITOCHONDRIAL DNA IN EXTRACELLULAR VESICLES AND TREATMENT OF MTDNA-RELATED DISORDERS AND CANCER” (Memorial Sloan-Kettering Cancer Center, priority 2017, published 2019)

How the values were obtained:
Type in all cases: cell-based, human
[1] = tested on: mitochondrial complex protein; test: Western blot of OXPHOS protein cocktail in HT-treated cells; details: fulvestrant; FIG. 11d
From the text: (§1) (Panel a), Representative bright field images of MCF7 po cells±CAF-EVs (3×10^9/weekly for 40 days). Bar graph of number of MS is also reported at the endpoint of the experiment (40 days). (Panel b), HT led to decreased expression of mRNA involved in protein synthesis and OXPHOS signaling with z score and -log (p-values)- as determined by Ingenuity analysis of microarray data from RNA isolated FIG. 5a (MCF7), single P values are also reported. (Panel c), OXPHOS potential determined as changes of respiration rate under mitochondrial stressors by seahorse technology (oligomycin 1 μM, rotenone 100 nM) in cancer cells isolated from FIG. 5b (MCF7, PT1). […] (Panel e), Mitochondrial Complex I/IV activity quantification as determined by nmol/min/mg of protein in luminal breast cancer cell lines from panel a. […]
For immunoblotting assays, cells were lysed in buffer (50 mmol/L Tris at pH 7.5, 150 mmol/L NaCl, 5 μg/mL aprotinin, pepstatin, 1% NP-40, lmmol/L EDTA, 0.25% deoxycholate, and protease inhibitor cocktail tablet, Sigma). […] The enrichment of CAFs in xenografts was determined by desmin immunohistochemistry (IHC) in tumor-derived sections. […] Viable cells were determined 7-14 days after treatment using trypan blue and cell counting using bright field microscopy or DAPI exclusion staining by flow cytometry (Dako Cytomation). […]

[2] = tested on: mitochondrial complex I and IV; test: Mitochondrial complex I/IV activity in HT-treated luminal breast cancer cell lines; details: fulvestrant; FIG. 11e
From the text: as §1
To measure mitochondrial complex activity, cell pellets were resuspended in assay buffer (125 mM sucrose, 0.1 mM EDTA, 25 mM Tris-HCl pH 7.5, 0.025% Lauryl-β-D-maltoside), and enzymatic activities were assayed with 0.1-0.4·10^6 cells/ml at 25° C. spectrophotometrically. NADH:HAR reductase activity of Complex I was measured as a decrease in absorption at 340 nm (ε340 nm=6.22 mM-1 cm-1) with 200 μM NADH, 1mM HAR and 1 mM KCN. Complex IV activity was measured as cytochrome oxidation at 550 nm (ε550 nm=21.5 mM-cm-) with 50 μM ferrocytochrome c. […] Protein content was determined with a BCA assay.

[3] = tested on: ER+ tumor-derived cells and cell lines; test: OXPHOS potential (Seahorse) in HT-treated cancer cells; details: fulvestrant; FIG. 11c
From the text: as §1
Mitochondrial respiration and OXPHOS potential in cells was assessed using Seahorse technology (www.seahorsebio.com)(Qian, W. & Van Houten, B. Alterations in bioenergetics due to changes in mitochondrial DNA copy number. Methods 51, 452-457 (2010)). Oxygen consumption rate (OCR), extracellular acidification rate and glycolytic potential were determined using the Seahorse extracellular flux analyzer (XF-96, XF-24 Seahorse Bioscience). […] Furthermore OXPHOS potential was determined by measuring the area of the progress curve after the addition of glucose and rotenone/oligomycin.

C[C@]12CC[C@@H]3c4ccc(O)cc4C[C@@H](CCCCCCCCC[S+]([O-])CCCC(F)(F)C(F)(F)F)[C@H]3[C@@H]1CC[C@@H]2O (stereo partly drawn) [fulvestrant]
reduced: mitochondrial complex protein expression in cells treated with HT [1] | mitochondrial complex I and IV activity in cells treated with HT [2] | OXPHOS potential in cells treated with HT [3]
